In US9597407B2, “Targeted antimicrobial moieties” (C3 Jian, Inc., priority 2009, dated 2017):
Entries after “also recorded” stand apart in the source; their conditions may differ.

Tests used:
microorganisms [1] = assay: Morphology, biofilm and growth disruption by peptides (Table 5); type: cell-based; parameters: key: A: Peptide aggregates; B: Less hyphal formation; Clumps; Diffuse clumps and small polyps; F: Diffuse growth; H: Thin; I: Growth inhibition; Microcolony formation; Rippled; Small polyps; Thick; W: Halo formation on top, microlonies on bottom
From the text: In certain embodiments peptides that induce alterations in phenotype or other biological activities can also be used as antimicrobial effector moieties.

bacteria = assay: Binding of targeting peptides to microorganisms (Table 3); settings: preferably 1x PBS; for Target(s): microorganism the targeting peptide binds, binding in aqueous buffers that varied with peptide solubility
microorganisms [2] = assay: Peptide activities: binding, antimicrobial, growth or phenotype altering (Table 8)
From the text: In certain embodiments, peptides described herein can have multiple activities. Thus for example, a peptide can have both binding/targeting activity and antimicrobial activity. Such peptides can be used, e.g., in a chimeric construct, for any or all of these properties. Thus, for example, a peptide designated “B” in Table 8 can be used as a targeting peptide. If it is also designated G or M it can also be used for antimicrobial activity.

[3] = peptide binding in aqueous buffers that varied depending on peptide solubility

PF-573 (EKKLIVKLIDSIGKSHEEIVGAG; Peptide with targeting and/or antimicrobial activity)
Organism, effect (morphology, biofilm and growth disruption) (microorganisms [1]; S. pneumoniae): S. pneumoniae (C) | Target(s) (microorganisms bound by the targeting peptide) (bacteria; [3]): S. epidermidis; also recorded: S. pneumoniae | Activities (microorganisms [2]): G B

PF-567 (QQRVKAVDASLSQVSTQVSGAVASA; Peptide with targeting and/or antimicrobial activity)
Organism, effect (morphology, biofilm and growth disruption) (microorganisms [1]; C. jeikeium): C. jeikeium (C) | Organism, effect (morphology, biofilm and growth disruption) (microorganisms [1]; C. jejuni): C. jejuni (D) | Organism, effect (morphology, biofilm and growth disruption) (microorganisms [1]; M. luteus): M. luteus (C) | Organism, effect (morphology, biofilm and growth disruption) (microorganisms [1]; MRSA): MRSA (D) | Organism, effect (morphology, biofilm and growth disruption) (microorganisms [1]; S. pneumoniae): S. pneumoniae (D) | Target(s) (microorganisms bound by the targeting peptide) (bacteria; [3]): S. epidermidis and P. aeruginosa and C. albicans and MRSA and S. pneumoniae and C. jeikeium | Activities (microorganisms [2]): G B

PF-051 (RFFNFEIKKSTKVDYVFAHVDLSDV; Peptide with targeting and/or antimicrobial activity)
Organism, effect (microorganisms [1]; M. luteus): M. luteus (C) | Organism, effect (microorganisms [1]; MRSA): MRSA (D) | Organism, effect (microorganisms [1]; S. epidermidis): S. epidermidis (D) | Organism, effect (microorganisms [1]; S. mutans): S. mutans (D) | Organism, effect (microorganisms [1]; S. pneumoniae): S. pneumoniae (D) | Target(s) (bacteria): S. epidermidis and M. luteus and P. aeruginosa and C. albicans and MRSA and S. pneumoniae and E. faecalis | Activities (microorganisms [2]): G B

PF-517 (VKPTMTASLISTVC; Peptide with targeting and/or antimicrobial activity)
Organism, effect (morphology, biofilm and growth disruption) (microorganisms [1]; S. pneumoniae): S. pneumoniae (M) | Target(s) (microorganisms bound by the targeting peptide) (bacteria; [3]): C. jejuni | Activities (microorganisms [2]): G B

PF-041 (ELLVILPGFI; Peptide with targeting and/or antimicrobial activity)
Organism, effect (microorganisms [1]; MRSA): MRSA (M) | Organism, effect (microorganisms [1]; S. epidermidis): S. epidermidis (R) | Target(s) (bacteria): MRSA | Activities (microorganisms [2]): G B

PF-026 (SIHFIN; Peptide with targeting and/or antimicrobial activity)
Organism, effect (microorganisms [1]; MRSA): MRSA (M) | Target(s) (bacteria): S. epidermidis and M. luteus and P. mirabilis and C. albicans and MRSA and E. faecalis and C. jeikeium | Activities (microorganisms [2]): G B

PF-453 (IIQDIAHAFGY; Peptide with targeting and/or antimicrobial activity)
Organism, effect (morphology, biofilm and growth disruption) (microorganisms [1]; E. coli): E. coli (C) | Organism, effect (morphology, biofilm and growth disruption) (microorganisms [1]; MRSA): MRSA (C) | Organism, effect (morphology, biofilm and growth disruption) (microorganisms [1]; S. epidermidis): S. epidermidis (C) | Organism, effect (morphology, biofilm and growth disruption) (microorganisms [1]; S. pneumoniae): S. pneumoniae (C) | Target(s) (microorganisms bound by the targeting peptide) (bacteria; [3]): M. luteus; also recorded: E. coli; also recorded: P. aeruginosa; also recorded: S. pneumoniae; also recorded: E. faecalis; also recorded: C. jeikeium; also recorded: C. jejuni | Activities (microorganisms [2]): G B

PF-C135 (KNTHAYLRVLRLSSLILSYQASVYPLFAYLCQQKDY; Peptide with targeting and/or antimicrobial activity)
Organism, effect (morphology, biofilm and growth disruption) (microorganisms [1]; F. nucleatum): F. nucleatum (C) | Organism, effect (morphology, biofilm and growth disruption) (microorganisms [1]; S. mutans): S. mutans (F) | Target(s) (microorganism bound by the targeting peptide) (bacteria; [3]): A. naeslundii; also recorded: F. nucleatum; also recorded: P. gingivalis; also recorded: S. mutans | Activities (microorganisms [2]): G B

PF-482 (LVGYVRTSGTVRSYKIN; Peptide with targeting and/or antimicrobial activity)
Organism, effect (morphology, biofilm and growth disruption) (microorganisms [1]; S. pneumoniae): S. pneumoniae (S) | Activities (microorganisms [2]): G B

PF-379 (VFVVLFIIYLASKLLTKLFPIKK; Peptide with targeting and/or antimicrobial activity)
Organism, effect (microorganisms [1]; E. coli): E. coli (C) | Organism, effect (microorganisms [1]; E. faecalis): E. faecalis (C) | Organism, effect (microorganisms [1]; MRSA): MRSA (C) | Organism, effect (microorganisms [1]; S. epidermidis): S. epidermidis (C) | Activities (microorganisms [2]): G B

PF-451 (MVNYIIGSYMLYREQNNNEALRKFDITLAM; Peptide with targeting and/or antimicrobial activity)
Organism, effect (morphology, biofilm and growth disruption) (microorganisms [1]; E. coli): E. coli (R) | Organism, effect (morphology, biofilm and growth disruption) (microorganisms [1]; E. faecalis): E. faecalis (C) | Organism, effect (morphology, biofilm and growth disruption) (microorganisms [1]; MRSA): MRSA (C) | Organism, effect (morphology, biofilm and growth disruption) (microorganisms [1]; S. epidermidis): S. epidermidis (C) | Organism, effect (morphology, biofilm and growth disruption) (microorganisms [1]; S. pneumoniae): S. pneumoniae (C) | Activities (microorganisms [2]): G B

PF-562 (TPEQWLERSTVVVTGLLNRK; Peptide with targeting and/or antimicrobial activity)
Organism, effect (morphology, biofilm and growth disruption) (microorganisms [1]; C. jejuni): C. jejuni (R) | Organism, effect (morphology, biofilm and growth disruption) (microorganisms [1]; M. luteus): M. luteus (R) | Organism, effect (morphology, biofilm and growth disruption) (microorganisms [1]; MRSA): MRSA (M) | Organism, effect (morphology, biofilm and growth disruption) (microorganisms [1]; S. epidermidis): S. epidermidis (A) | Organism, effect (morphology, biofilm and growth disruption) (microorganisms [1]; S. pneumoniae): S. pneumoniae (D) | Activities (microorganisms [2]): G B

PF-450 (HRNLIILQRTIFI; Peptide with targeting and/or antimicrobial activity)
Organism, effect (morphology, biofilm and growth disruption) (microorganisms [1]; E. faecalis): E. faecalis (C) | Organism, effect (morphology, biofilm and growth disruption) (microorganisms [1]; MRSA): MRSA (C) | Organism, effect (morphology, biofilm and growth disruption) (microorganisms [1]; S. pneumoniae): S. pneumoniae (C) | Activities (microorganisms [2]): G B

PF-443 (KLLYFFNYFENLQQVHLLVQL; Peptide with targeting and/or antimicrobial activity)
Organism, effect (morphology, biofilm and growth disruption) (microorganisms [1]; E. coli): E. coli (R) | Organism, effect (morphology, biofilm and growth disruption) (microorganisms [1]; MRSA): MRSA (C) | Organism, effect (morphology, biofilm and growth disruption) (microorganisms [1]; S. pneumoniae): S. pneumoniae (C) | Activities (microorganisms [2]): G B

PF-578 (QKANLRIGFTYTSDSNVCNLTFALLGSK; Peptide with targeting and/or antimicrobial activity)
Organism, effect (morphology, biofilm and growth disruption) (microorganisms [1]; E. coli): E. coli (C) | Organism, effect (morphology, biofilm and growth disruption) (microorganisms [1]; M. luteus): M. luteus (C) | Organism, effect (morphology, biofilm and growth disruption) (microorganisms [1]; MRSA): MRSA (C) | Organism, effect (morphology, biofilm and growth disruption) (microorganisms [1]; P. mirabilis): P. mirabilis (C) | Organism, effect (morphology, biofilm and growth disruption) (microorganisms [1]; S. epidermidis): S. epidermidis (D) | Organism, effect (morphology, biofilm and growth disruption) (microorganisms [1]; S. mutans): S. mutans (D) | Organism, effect (morphology, biofilm and growth disruption) (microorganisms [1]; S. pneumoniae): S. pneumoniae (D) | Activities (microorganisms [2]): G B

PF-355 (WIAIGLLLYFSLKNQ; Peptide with targeting and/or antimicrobial activity)
Organism, effect (microorganisms [1]; C. jejuni): C. jejuni (D) | Organism, effect (microorganisms [1]; E. coli): E. coli (C) | Organism, effect (microorganisms [1]; E. faecalis): E. faecalis (D) | Organism, effect (microorganisms [1]; MRSA): MRSA (A) | Organism, effect (microorganisms [1]; P. aeruginosa): P. aeruginosa (A) | Organism, effect (microorganisms [1]; S. epidermidis): S. epidermidis (C) | Organism, effect (microorganisms [1]; S. pneumoniae): S. pneumoniae (D) | Activities (microorganisms [2]): G B

PF-012 (WRGPNTEAGGKSANNIVQVGGAPT; Peptide with targeting and/or antimicrobial activity)
Organism, effect (microorganisms [1]; C. jeikeium): C. jeikeium (A) | Organism, effect (microorganisms [1]; M. luteus): M. luteus (C) | Organism, effect (microorganisms [1]; MRSA): MRSA (R) | Organism, effect (microorganisms [1]; S. epidermidis): S. epidermidis (S) | Activities (microorganisms [2]): G B

PF-376 (MTVFEALMLAIAFATLIVKISNKNDKK; Peptide with targeting and/or antimicrobial activity)
Organism, effect (microorganisms [1]; E. coli): E. coli (C) | Organism, effect (microorganisms [1]; E. faecalis): E. faecalis (C) | Organism, effect (microorganisms [1]; MRSA): MRSA (C) | Organism, effect (microorganisms [1]; S. epidermidis): S. epidermidis (C) | Activities (microorganisms [2]): G B

PF-544 (FGEKQMRSWWKVHWFHP; Peptide with targeting and/or antimicrobial activity)
Organism, effect (morphology, biofilm and growth disruption) (microorganisms [1]; E. faecalis): E. faecalis (R) | Organism, effect (morphology, biofilm and growth disruption) (microorganisms [1]; MRSA): MRSA (D) | Organism, effect (morphology, biofilm and growth disruption) (microorganisms [1]; S. epidermidis): S. epidermidis (D) | Organism, effect (morphology, biofilm and growth disruption) (microorganisms [1]; S. pneumoniae): S. pneumoniae (M) | Activities (microorganisms [2]): G B

PF-057 (TMIVISIPRFEEYMKARHKKWM; Peptide with targeting and/or antimicrobial activity)
Organism, effect (microorganisms [1]; C. albicans): C. albicans (A) | Organism, effect (microorganisms [1]; C. jeikeium): C. jeikeium (A) | Organism, effect (microorganisms [1]; C. jejuni): C. jejuni (D) | Organism, effect (microorganisms [1]; E. coli): E. coli (M) | Organism, effect (microorganisms [1]; E. faecalis): E. faecalis (A) | Organism, effect (microorganisms [1]; M. luteus): M. luteus (C) | Organism, effect (microorganisms [1]; MRSA): MRSA (M) | Organism, effect (microorganisms [1]; S. epidermidis): S. epidermidis (D) | Organism, effect (microorganisms [1]; S. pneumoniae): S. pneumoniae (R) | Activities (microorganisms [2]): G B

PF-577 (PFETRESFRVPVIGILGGWDYFMHP; Peptide with targeting and/or antimicrobial activity)
Organism, effect (morphology, biofilm and growth disruption) (microorganisms [1]; C. jejuni): C. jejuni (R) | Organism, effect (morphology, biofilm and growth disruption) (microorganisms [1]; E. coli): E. coli (A) | Organism, effect (morphology, biofilm and growth disruption) (microorganisms [1]; E. faecalis): E. faecalis (A) | Organism, effect (morphology, biofilm and growth disruption) (microorganisms [1]; MRSA): MRSA (M) | Organism, effect (morphology, biofilm and growth disruption) (microorganisms [1]; P. aeruginosa): P. aeruginosa (A) | Organism, effect (morphology, biofilm and growth disruption) (microorganisms [1]; S. epidermidis): S. epidermidis (A) | Organism, effect (morphology, biofilm and growth disruption) (microorganisms [1]; S. pneumoniae): S. pneumoniae (R) | Activities (microorganisms [2]): G B

PF-460 (MEHVLPFQNTPPNIVIIYKDFTHLKSITFS; Peptide with targeting and/or antimicrobial activity)
Organism, effect (morphology, biofilm and growth disruption) (microorganisms [1]; E. coli): E. coli (H) | Organism, effect (morphology, biofilm and growth disruption) (microorganisms [1]; E. faecalis): E. faecalis (C) | Organism, effect (morphology, biofilm and growth disruption) (microorganisms [1]; MRSA): MRSA (C) | Organism, effect (morphology, biofilm and growth disruption) (microorganisms [1]; S. epidermidis): S. epidermidis (C) | Organism, effect (morphology, biofilm and growth disruption) (microorganisms [1]; S. pneumoniae): S. pneumoniae (R) | Activities (microorganisms [2]): G B

PF-537 (LANDYYKKTKKSW; Peptide with targeting and/or antimicrobial activity)
Organism, effect (morphology, biofilm and growth disruption) (microorganisms [1]; S. pneumoniae): S. pneumoniae (C) | Activities (microorganisms [2]): G B

B1: PF-748 (peptide)
chain 1: FQGFFDVAVNKWWEEHNKAKLWKNVKGKFLEGEGEEEDDE
chain 2: FQGFFDVAVNKWWEEHNKAKLWKNVKGKFLEGEGEEEDDE
modifications: Peptide with targeting and/or antimicrobial activity
Organism, effect (morphology, biofilm and growth disruption) (microorganisms [1]; S. pneumoniae): S. pneumoniae (H) | Activities (microorganisms [2]): G B
